From publication PMC5095285, “The fungal-specific β-glucan-binding lectin FGB1 alters cell-wall composition and suppresses glucan-triggered immunity in plants” (Nature Communications, 2016)

Target: T1, FGB1 (Serendipita indica, UniProt G4TDB9)
T1 construct: gene PIIN_03211; native secreted mature protein purified from P. indica culture filtrate, signal peptide removed; precursor 104 residues; 6,219 Da, non-glycosylated, four disulfide bridges; no tag
Experiment: isothermal titration calorimetry (VP-ITC)
Format: binding
Settings: in water, 20 °C; single-site model, N=0.854±0.243; printed error exceeds the value (likely exponent misprint); read-out: K (converted)
Text: isothermal titration calorimetry (VP-ITC) on FGB1 | The titration of gentiobiose to FGB1 was fitted to a single-side-binding model

T1 sequence (G4TDB9 entry or part of it): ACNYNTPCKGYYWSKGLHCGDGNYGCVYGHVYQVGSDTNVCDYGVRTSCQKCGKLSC

Compound: OC[C@H]1O[C@@H](OC[C@H]2OC(O)[C@H](O)[C@@H](O)[C@@H]2O)[C@H](O)[C@@H](O)[C@@H]1O (stereo partly shown) [gentiobiose]
- Kd: 11.4 µM
